Assay results from ChEMBL document CHEMBL3994586, “Treatment of estrogen-dependent diseases: Design, synthesis and profiling of a selective 17β-HSD1 inhibitor with sub-nanomolar IC50 for a proof-of-principle study” (Eur J Med Chem, 2017).

Assays:
[1] = target: T1, Estrogen receptor alpha (ERalpha) (Homo sapiens, UniProt P03372); test: Displacement of [3H]E2 from human recombinant ERalpha assessed as receptor binding at 3 uM after 16 to 20 hrs by liquid scintillation counting method relative to control; conditions: probe [3H]E2, read-out: Activity
T1 sequence (P03372 whole entry): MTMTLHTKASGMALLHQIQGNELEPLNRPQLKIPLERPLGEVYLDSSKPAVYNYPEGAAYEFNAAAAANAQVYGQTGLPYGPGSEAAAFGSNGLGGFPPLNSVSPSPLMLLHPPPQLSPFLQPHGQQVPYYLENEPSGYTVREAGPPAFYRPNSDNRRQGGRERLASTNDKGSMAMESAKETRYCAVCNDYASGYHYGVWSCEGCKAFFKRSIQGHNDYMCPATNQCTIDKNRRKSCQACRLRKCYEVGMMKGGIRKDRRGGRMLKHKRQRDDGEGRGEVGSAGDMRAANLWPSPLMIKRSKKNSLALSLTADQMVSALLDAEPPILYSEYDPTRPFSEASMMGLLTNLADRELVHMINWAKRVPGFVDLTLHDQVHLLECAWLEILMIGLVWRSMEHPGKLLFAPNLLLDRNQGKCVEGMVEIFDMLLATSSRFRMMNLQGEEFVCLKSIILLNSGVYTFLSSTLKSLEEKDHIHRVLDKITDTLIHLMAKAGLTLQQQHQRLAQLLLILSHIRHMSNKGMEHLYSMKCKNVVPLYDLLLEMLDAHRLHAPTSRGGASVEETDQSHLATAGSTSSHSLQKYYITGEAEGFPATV

[2] = target: Estrogen receptor beta (ERbeta) (Homo sapiens, UniProt Q92731); test: Displacement of [3H]E2 from human recombinant ERbeta assessed as receptor binding at 10 uM after 16 to 20 hrs by liquid scintillation counting method relative to control; conditions: probe [3H]E2, read-out: Activity
[3] = target: T2, 17-beta-hydroxysteroid dehydrogenase type 1 (Homo sapiens, UniProt P14061); test: Inhibition of human placental cytosolic 17beta-HSD1 assessed as reduction in activation of [2,4,6,7-3H]-E1 substrate to E2 after 10 mins in presence of NADH by RP-HPLC method
T2 sequence (P14061 whole entry): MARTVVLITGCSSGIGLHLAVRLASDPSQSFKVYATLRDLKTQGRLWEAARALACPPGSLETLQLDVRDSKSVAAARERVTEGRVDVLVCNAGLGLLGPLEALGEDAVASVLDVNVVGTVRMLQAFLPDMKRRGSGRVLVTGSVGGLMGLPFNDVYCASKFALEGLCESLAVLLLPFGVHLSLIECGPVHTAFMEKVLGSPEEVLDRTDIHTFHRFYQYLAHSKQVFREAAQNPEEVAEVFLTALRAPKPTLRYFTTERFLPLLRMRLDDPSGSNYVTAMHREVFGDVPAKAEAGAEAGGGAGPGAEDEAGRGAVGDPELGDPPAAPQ

[4] = target: T3, 17-beta-hydroxysteroid dehydrogenase type 2 (Homo sapiens, UniProt P37059); test: Inhibition of human placental microsomal 17beta-HSD2 using [2,4,6,7-3H]-E2 as substrate after 20 mins in presence of NAD+ by RP-HPLC method
T3 sequence (P37059 whole entry): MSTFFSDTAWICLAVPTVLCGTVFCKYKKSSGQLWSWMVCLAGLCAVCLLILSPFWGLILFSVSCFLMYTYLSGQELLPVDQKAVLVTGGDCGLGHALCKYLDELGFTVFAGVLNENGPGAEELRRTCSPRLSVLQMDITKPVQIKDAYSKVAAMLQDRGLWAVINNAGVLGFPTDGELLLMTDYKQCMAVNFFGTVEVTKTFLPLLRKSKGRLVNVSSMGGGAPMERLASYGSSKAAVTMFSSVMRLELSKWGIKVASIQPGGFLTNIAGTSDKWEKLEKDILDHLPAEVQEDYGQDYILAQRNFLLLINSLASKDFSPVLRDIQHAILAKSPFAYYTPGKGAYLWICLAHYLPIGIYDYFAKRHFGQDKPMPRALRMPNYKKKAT

[5] = target: T4, PXR (NR1I2) (Homo sapiens, UniProt O75469); test: Agonist activity at recombinant human PXR at 3.16 uM by co-factor recruitment assay relative to control; type: ADME; conditions: read-out: Activity
T4 sequence (O75469 whole entry): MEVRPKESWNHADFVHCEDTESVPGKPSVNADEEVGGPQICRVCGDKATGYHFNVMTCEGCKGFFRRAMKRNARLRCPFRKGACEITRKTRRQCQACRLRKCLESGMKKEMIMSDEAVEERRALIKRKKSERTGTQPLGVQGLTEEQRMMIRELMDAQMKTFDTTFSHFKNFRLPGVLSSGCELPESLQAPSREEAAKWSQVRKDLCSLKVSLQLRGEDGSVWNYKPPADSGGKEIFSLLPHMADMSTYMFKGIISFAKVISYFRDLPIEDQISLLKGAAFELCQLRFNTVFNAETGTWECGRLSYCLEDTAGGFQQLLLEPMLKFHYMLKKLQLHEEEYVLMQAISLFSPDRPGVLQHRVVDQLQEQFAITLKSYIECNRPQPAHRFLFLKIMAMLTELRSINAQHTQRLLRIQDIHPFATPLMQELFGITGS

[6] = test system: Salmonella typhimurium; test: Mutagenicity in Salmonella typhimurium TA98 up to 100 uM by Ames 2 assay; type: toxicity; conditions: salmonella enterica subsp. enterica serovar typhimurium
[7] = test system: Salmonella typhimurium; test: Mutagenicity in Salmonella typhimurium TA7001/7002/7003/7004/7005/7006 up to 100 uM by Ames 2 assay; type: toxicity; conditions: salmonella enterica subsp. enterica serovar typhimurium
[8] = test system: Salmonella typhimurium; test: Mutagenicity in Salmonella typhimurium TA7001/7002/7003/7004/7005/7006 up to 100 uM in presence of rat liver S9 fraction by Ames 2 assay; type: toxicity; conditions: salmonella enterica subsp. enterica serovar typhimurium
[9] = target: CYP2D6 (Homo sapiens, UniProt P10635); test: Inhibition of recombinant human CYP2D6 expressed in baculovirus infected insect cell microsomes at 1 uM relative to control; type: ADME
[10] = target: T5, CYP1A2 (Homo sapiens, UniProt P05177); test: Inhibition of recombinant human CYP1A2 expressed in baculovirus infected insect cell microsomes at 1 uM relative to control; type: ADME
T5 sequence (P05177 whole entry): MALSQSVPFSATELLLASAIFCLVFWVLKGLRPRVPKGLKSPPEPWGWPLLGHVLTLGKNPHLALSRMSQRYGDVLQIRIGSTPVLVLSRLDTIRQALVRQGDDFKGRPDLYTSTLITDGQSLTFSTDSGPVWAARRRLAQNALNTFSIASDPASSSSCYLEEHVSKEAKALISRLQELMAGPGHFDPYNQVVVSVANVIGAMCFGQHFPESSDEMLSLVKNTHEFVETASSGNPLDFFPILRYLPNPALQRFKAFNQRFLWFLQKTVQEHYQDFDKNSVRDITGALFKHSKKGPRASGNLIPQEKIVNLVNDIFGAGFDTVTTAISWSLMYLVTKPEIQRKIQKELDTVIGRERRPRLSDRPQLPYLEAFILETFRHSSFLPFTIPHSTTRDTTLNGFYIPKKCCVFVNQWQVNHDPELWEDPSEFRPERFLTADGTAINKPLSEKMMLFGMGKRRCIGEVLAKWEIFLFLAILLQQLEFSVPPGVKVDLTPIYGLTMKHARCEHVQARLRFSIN

[11] = test system: HEK293; test: Cytotoxicity against HEK293 cells assessed as reduction in cell viability up to 5.6 uM after 66 hrs by MTT assay; type: cell-based; conditions: human, hek293, 66 h
[12] = Selectivity index, ratio of IC20 for HEK293 cells to IC50 for human placental cytosolic 17beta-HSD1
[13] = test system: Plasma; test: Plasma concentration in Sprague-Dawley rat at 150 umol/kg, sc qd for 4 consecutive days measured on day 8 post dose by HPLC-MS analysis; type: ADME, organism-based; conditions: in vivo
[14] = test system: Plasma; test: Plasma concentration in Sprague-Dawley rat at 150 umol/kg, sc qd for 4 consecutive days measured on day 2 post dose by HPLC-MS analysis; type: ADME, organism-based; conditions: in vivo
[15] = target: T6, CYP2B6 (Homo sapiens, UniProt P20813); test: Inhibition of recombinant human CYP2B6 expressed in baculovirus infected insect cell microsomes at 1 uM relative to control; type: ADME
T6 sequence (P20813 whole entry): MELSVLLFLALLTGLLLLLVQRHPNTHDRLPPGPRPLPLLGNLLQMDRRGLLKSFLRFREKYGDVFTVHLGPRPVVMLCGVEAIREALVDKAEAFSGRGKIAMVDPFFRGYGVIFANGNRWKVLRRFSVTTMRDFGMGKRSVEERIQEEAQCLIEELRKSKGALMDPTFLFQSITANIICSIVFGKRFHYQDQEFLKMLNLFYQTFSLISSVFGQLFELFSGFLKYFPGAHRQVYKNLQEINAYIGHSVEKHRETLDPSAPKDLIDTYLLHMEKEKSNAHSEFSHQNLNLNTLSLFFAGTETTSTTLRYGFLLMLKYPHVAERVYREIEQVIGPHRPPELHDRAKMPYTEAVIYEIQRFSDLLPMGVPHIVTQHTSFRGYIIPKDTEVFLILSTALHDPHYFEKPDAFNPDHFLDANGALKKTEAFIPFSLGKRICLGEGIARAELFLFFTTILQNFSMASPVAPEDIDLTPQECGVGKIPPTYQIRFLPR

[16] = test system: Plasma; test: Plasma concentration in Sprague-Dawley rat at 150 umol/kg, sc qd for 4 consecutive days measured on day 4 post dose by HPLC-MS analysis; type: ADME, organism-based; conditions: in vivo
[17] = test system: Salmonella typhimurium; test: Mutagenicity in Salmonella typhimurium TA98 up to 100 uM in presence of rat liver S9 fraction by Ames 2 assay; type: toxicity; conditions: salmonella enterica subsp. enterica serovar typhimurium
[18] = target: CYP2C9 (Homo sapiens, UniProt P11712); test: Inhibition of recombinant human CYP2C9 expressed in baculovirus infected insect cell microsomes at 1 uM relative to control; type: ADME
[19] = target: CYP2C19 (Homo sapiens, UniProt P33261); test: Inhibition of recombinant human CYP2C19 expressed in baculovirus infected insect cell microsomes at 1 uM relative to control; type: ADME
[20] = target: CYP3A4 (Homo sapiens, UniProt P08684); test: Inhibition of recombinant human CYP3A4 expressed in baculovirus infected insect cell microsomes at 1 uM relative to control; type: ADME
CYP3A4, sequence (P08684 whole entry): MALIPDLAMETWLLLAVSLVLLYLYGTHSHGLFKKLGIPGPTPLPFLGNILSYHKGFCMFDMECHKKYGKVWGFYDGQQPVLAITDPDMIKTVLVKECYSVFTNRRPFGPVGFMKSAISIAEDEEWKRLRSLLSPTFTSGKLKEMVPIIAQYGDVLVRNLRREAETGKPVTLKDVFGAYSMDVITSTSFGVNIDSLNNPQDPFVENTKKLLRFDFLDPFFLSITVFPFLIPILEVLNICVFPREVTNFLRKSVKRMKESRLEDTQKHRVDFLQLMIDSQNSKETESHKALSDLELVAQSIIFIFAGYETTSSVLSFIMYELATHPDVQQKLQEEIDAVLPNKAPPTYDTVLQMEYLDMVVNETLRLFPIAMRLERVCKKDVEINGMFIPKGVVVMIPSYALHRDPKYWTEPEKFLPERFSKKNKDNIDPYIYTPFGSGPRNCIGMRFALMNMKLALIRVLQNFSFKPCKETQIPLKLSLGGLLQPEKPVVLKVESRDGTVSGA

Estrogen receptor beta (ERbeta), sequence (Q92731 whole entry): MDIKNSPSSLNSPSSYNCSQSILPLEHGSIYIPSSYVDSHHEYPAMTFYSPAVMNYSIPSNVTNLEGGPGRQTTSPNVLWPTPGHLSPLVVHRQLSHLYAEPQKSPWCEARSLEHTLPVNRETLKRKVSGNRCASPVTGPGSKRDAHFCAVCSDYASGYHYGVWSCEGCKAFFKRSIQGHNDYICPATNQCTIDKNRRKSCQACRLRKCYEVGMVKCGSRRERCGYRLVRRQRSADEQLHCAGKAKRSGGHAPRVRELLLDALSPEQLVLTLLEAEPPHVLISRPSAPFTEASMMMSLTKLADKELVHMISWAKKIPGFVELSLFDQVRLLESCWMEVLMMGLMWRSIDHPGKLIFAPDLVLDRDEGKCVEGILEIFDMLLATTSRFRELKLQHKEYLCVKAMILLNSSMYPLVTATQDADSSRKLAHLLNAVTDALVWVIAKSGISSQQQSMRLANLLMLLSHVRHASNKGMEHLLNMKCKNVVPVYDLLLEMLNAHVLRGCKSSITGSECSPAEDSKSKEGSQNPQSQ
CYP2D6, sequence (P10635 whole entry): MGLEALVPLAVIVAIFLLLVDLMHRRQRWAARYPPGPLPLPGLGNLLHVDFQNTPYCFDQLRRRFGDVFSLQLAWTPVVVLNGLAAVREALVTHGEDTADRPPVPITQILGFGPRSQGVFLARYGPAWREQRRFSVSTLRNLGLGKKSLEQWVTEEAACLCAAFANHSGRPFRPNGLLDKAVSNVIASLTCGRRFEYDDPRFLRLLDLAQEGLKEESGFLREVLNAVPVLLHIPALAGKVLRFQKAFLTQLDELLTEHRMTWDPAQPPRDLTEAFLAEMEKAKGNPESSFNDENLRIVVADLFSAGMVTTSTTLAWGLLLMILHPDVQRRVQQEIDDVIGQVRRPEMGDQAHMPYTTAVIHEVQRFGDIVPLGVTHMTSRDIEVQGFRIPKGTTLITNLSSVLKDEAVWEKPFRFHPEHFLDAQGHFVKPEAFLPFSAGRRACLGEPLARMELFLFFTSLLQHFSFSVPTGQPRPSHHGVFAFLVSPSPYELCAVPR
CYP2C19, sequence (P33261 whole entry): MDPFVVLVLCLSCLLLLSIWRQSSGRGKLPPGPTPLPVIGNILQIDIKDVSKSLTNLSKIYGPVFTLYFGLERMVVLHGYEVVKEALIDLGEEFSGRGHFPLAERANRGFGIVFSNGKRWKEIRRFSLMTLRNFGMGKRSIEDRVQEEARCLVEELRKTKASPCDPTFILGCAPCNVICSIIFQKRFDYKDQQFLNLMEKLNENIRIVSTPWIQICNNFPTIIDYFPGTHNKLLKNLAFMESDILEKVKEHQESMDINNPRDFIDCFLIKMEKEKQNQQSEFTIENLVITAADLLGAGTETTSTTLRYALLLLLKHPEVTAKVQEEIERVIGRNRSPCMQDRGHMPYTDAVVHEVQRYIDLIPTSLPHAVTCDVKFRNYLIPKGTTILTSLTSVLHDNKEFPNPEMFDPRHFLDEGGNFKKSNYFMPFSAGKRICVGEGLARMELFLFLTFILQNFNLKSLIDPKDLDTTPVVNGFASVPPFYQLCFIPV
CYP2C9, sequence (P11712 whole entry): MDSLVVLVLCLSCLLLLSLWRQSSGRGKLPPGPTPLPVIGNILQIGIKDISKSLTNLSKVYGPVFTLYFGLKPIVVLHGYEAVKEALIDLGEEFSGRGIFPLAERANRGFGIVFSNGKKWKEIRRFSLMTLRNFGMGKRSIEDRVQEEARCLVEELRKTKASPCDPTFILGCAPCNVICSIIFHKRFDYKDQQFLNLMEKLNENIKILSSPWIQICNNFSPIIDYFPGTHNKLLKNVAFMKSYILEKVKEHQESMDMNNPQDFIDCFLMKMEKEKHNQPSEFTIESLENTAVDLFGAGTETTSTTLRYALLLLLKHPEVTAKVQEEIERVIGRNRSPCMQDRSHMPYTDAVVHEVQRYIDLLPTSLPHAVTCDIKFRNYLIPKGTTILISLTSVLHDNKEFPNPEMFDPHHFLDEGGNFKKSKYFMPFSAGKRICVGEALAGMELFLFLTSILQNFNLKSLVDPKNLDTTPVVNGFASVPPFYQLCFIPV

| Structure (SMILES) | activity at 3 µM [1] [%] | activity at 10 µM [2] [%] | IC50 [3] [nM] | IC50 [4] [nM] | other results |
| --- | --- | --- | --- | --- | --- |
| O=C(c1ccc(-c2ccc(O)c(Cl)c2)s1)c1c(F)ccc(O)c1F | 73 | 55 |  |  |  |
| COc1c(C)cc(-c2ccc(C(=O)c3c(F)ccc(O)c3F)s2)cc1C | 51 | 69 |  |  |  |
| O=C(c1cccc(O)c1)c1ccc(-c2ccc(F)cc2F)s1 |  |  | 105 to 110 | 140 |  |
| N#Cc1cc(-c2ccc(C(=O)c3c(F)ccc(O)c3F)s2)ccc1O | 44 | 6 |  |  |  |
| O=C(c1ccc(-c2ccncc2)s1)c1c(F)ccc(O)c1F |  |  | 150 | 39 |  |
| O=C(c1ccc(-c2cc(Cl)c(O)c(Cl)c2)s1)c1c(F)ccc(O)c1F | 37 | 11 |  |  |  |
| NS(=O)(=O)c1ccc(-c2ccc(C(=O)c3c(F)ccc(O)c3F)s2)cc1 |  |  | 150 | 85 |  |
| COc1ccc(-c2ccc(C(=O)c3c(F)ccc(O)c3F)s2)cc1S(=O)(=O)N1CCOCC1 | 0 | 4 | 130 | 180 |  |
| Cc1cc(-c2ccc(C(=O)c3c(F)ccc(O)c3F)s2)cc(C)c1O | 17 | 22 |  |  |  |

Continued by falling IC50 [3], values first:

| activity at 3 µM [1] [%] | activity at 10 µM [2] [%] | IC50 [3] [nM] | IC50 [4] [nM] | Structure (SMILES) | other results |
| --- | --- | --- | --- | --- | --- |
|  |  | 73 | 540 | O=C(c1cccc(O)c1)c1ccc(-c2cc(Cl)c(O)c(Cl)c2)s1 |  |
|  |  | 55 | 86 | NS(=O)(=O)c1cccc(-c2ccc(C(=O)c3c(F)ccc(O)c3F)s2)c1 |  |
|  |  | 47 | 55 | O=C(c1ccc(-c2ccc(F)cc2F)s1)c1cccc(O)c1F |  |
|  |  | 27 | 47 | O=C(c1ccc(-c2cccnc2)s1)c1c(F)ccc(O)c1F |  |
|  |  | 18 | 38 | COc1ccc(-c2ccc(C(=O)c3c(F)ccc(O)c3F)s2)cc1 |  |
|  |  | 18 | 26 | O=C(c1ccc(-c2cc(Cl)c(O)c(Cn3ccnn3)c2)s1)c1c(F)ccc(O)c1F |  |
|  |  | 11 | 35 | O=C(c1ccc(-c2ccccc2)s1)c1c(F)ccc(O)c1F |  |
| 8 | 0 | 6 | 250 | COc1c(Cl)cc(-c2ccc(C(=O)c3cccc(O)c3)s2)cc1Cl |  |
|  |  | 3 | 71 | O=C(c1ccc(-c2ccc(O)cc2)s1)c1c(F)ccc(O)c1F |  |
| 27 | 8 | 0.5 |  | COc1c(Cl)cc(-c2ccc(C(=O)c3c(F)ccc(O)c3F)s2)cc1Cl | activity at 3.16 µM [5]: < 5%; Activity [6]: Non-Toxic; Activity [7]: Non-Toxic; Activity [8]: Non-Toxic; inhibition at 1 µM [9]: 0%; inhibition at 1 µM [10]: 11%; Activity [11]: Non-Toxic; Selectivity Index [12]: 11160; concentration [13]: 72 nM; concentration [14]: 24 nM; inhibition at 1 µM [15]: 4%; concentration [16]: 42 nM; Activity [17]: Non-Toxic; inhibition at 1 µM [18]: 0%; inhibition at 1 µM [19]: 27%; inhibition at 1 µM [20]: 36% |
|  |  | 0.3 |  | COc1c(C)cc(-c2ccc(C(=O)c3c(F)ccc(O)c3F)s2)cc1Cl |  |
